Read-outs that look alike come from different tables or passages of the source.
Key:
[1] = log P by HPLC on reversed-phase (C18) columns, OECD Guideline 117; assay type: physicochemical; details: reversed-phase (C18) HPLC column
Procedure: Calibration is carried out using unbranched alkan-2-ones (having 3 to 16 carbon atoms) with known log P values (log P values determined on the basis of the retention times by linear interpolation between two successive alkanones).

Myzus persicae = Myzus persicae - spray test; assay type: in vivo; details: foliar, 144 h, application rate 500 g/ha, sprayed Chinese cabbage leaf discs (Brassica pekinensis) infested by all stages, after 6 days, read-out: efficacy in % (100% = all aphids killed)
Procedure: Myzus persicae—Spray Test
Solvent: 78 parts by weight of acetone • • 1.5 parts by weight of dimethylformamide
Emulsifier: alkylaryl polyglycol ether
To produce further test concentrations, the formulation is diluted with emulsifier-containing water.
After 6 days, the efficacy in % is determined. 100% means that all the aphids have been killed; 0% means that no aphids have been killed.

[2] = acidic range, pH 2.7, 0.1% aqueous formic acid and acetonitrile as eluents, read-out: logP [a]
[3] = neutral range, pH 7.8, 0.001 molar aqueous ammonium hydrogencarbonate solution and acetonitrile as eluents, read-out: logP [b]

| SMILES | chromatographic logP [1, 2] | chromatographic logP [1, 3] | pest or weed control at 500 g/ha (Myzus persicae) |
| --- | --- | --- | --- |
| Cc1cc(F)c(-c2cc3sc(-c4cccnc4)nc3cn2)cc1SCC(F)(F)F [Example 1, 6-[2-Fluoro-4-methyl-5-(2,2,2-trifluoroethylsulphanyl)phenyl]-2-(3-pyridyl)thiazolo [4,5-c]pyridine] | 4.45 | 4.41 | 90% |
| Cc1cc(F)c(-c2cc3sc(-c4cccnc4)nc3cn2)cc1[S+]([O-])CC(F)(F)F (stereo not shown) [Example 2, 6-[2-Fluoro-4-methyl-5-(2,2,2-trifluoroethylsulphinyl)phenyl]-2-(3-pyridyl)thiazolo [4,5-c]pyridine] | 2.8 | 2.77 |  |
| FC(F)(F)c1cc2sc(-c3cccnc3)nc2cn1 [Example 3, 2-(3-Pyridyl)-6-(trifluoromethyl)thiazolo[4,5-c]pyridine] | 2.32 | 2.32 |  |
| c1cncc(-c2nc3cnc(N4CCOCC4)cc3s2)c1 [Example 4, 4-[2-(3-Pyridyl)thiazolo[4,5-c]pyridin-6-yl]morpholine] | 1.73 | 1.94 | 90% |
| Cc1ccc(-c2cc3sc(-c4cccnc4)nc3cn2)cc1[S+]([O-])CC(F)(F)F (stereo not shown) [Example 5] | 2.79 | 2.74 |  |
| c1ccc(-c2cc3sc(-c4cccnc4)nc3cn2)nc1 [Example 6, 6-(2-Pyridyl)-2-(3-pyridyl)thiazolo[4,5-c]pyridine] | 1.68 | 2.38 |  |
| CN(C(=O)c1cccc(SC(F)(F)F)c1)c1cc2sc(-c3cccnc3)nc2cn1 [Example 7] | 3.3 |  | 90% |
| CN(C(=O)C1CCS(=O)(=O)C1)c1cc2sc(-c3cccnc3)nc2cn1 (stereo not shown) [Example 10] | 1.37 |  | 90% |
| O=C(Nc1cccc(SC(F)(F)F)c1)c1cc2sc(-c3cccnc3)nc2cn1 [Example 11] | 4.33 |  |  |
| O=C(Nc1cccc([S+]([O-])C(F)(F)F)c1)c1cc2sc(-c3cccnc3)nc2cn1 (stereo not shown) [Example 14] | 2.99 |  |  |
| CN(C(=O)CCS(C)(=O)=O)c1cc2sc(-c3cccnc3)nc2cn1 [Example 17, N-Methyl-3-(methylsulphonyl)-N-[2-(pyridin-3-yl) [1,3]thiazolo[4,5-c]pyridin-6-yl]propanamide] | 1.25 |  | 90% |
| CN(C(=O)c1cccc(S(=O)(=O)C(F)(F)F)c1)c1cc2sc(-c3cccnc3)nc2cn1 [Example 18] | 1.54 |  | 100% |
| O=C(Nc1cccc(S(=O)(=O)C(F)(F)F)c1)c1cc2sc(-c3cccnc3)nc2cn1 [Example 19] | 2.09 |  |  |
| CNC(=O)c1cc2sc(-c3cccnc3)nc2cn1 [Example 20] | 1.35 |  |  |
| CCN(C)C(=O)c1cc2sc(-c3cccnc3)nc2cn1 [Example 21] | 1.52 |  | 90% |
| CN(C(=O)c1cccc([S+]([O-])C(F)(F)F)c1)c1cc2sc(-c3cccnc3)nc2cn1 (stereo not shown) [Example 22] | 2.21 |  | 90% |
| Clc1cc2sc(-c3cccnc3)nc2cn1 [Example 24, 6-Chloro-2-(3-pyridyl)thiazolo[4,5-c]pyridine] | 1.89 |  |  |
| Cc1ccc(-c2cc3sc(-c4cccnc4)nc3cn2)cc1SCC(F)(F)F [Example 25] | 4.32 | 4.21 |  |
| FC(F)(F)c1ccn(-c2cc3sc(-c4cccnc4)nc3cn2)n1 [Example 26, 2-(Pyridin-3-yl)-6-[3-(trifluoromethyl)-1H-pyrazol-1-yl][1,3]thiazolo[4,5-c]pyridine] | 3.66 | 3.68 |  |
| c1cncc(-c2nc3cnc(N4CCCC4)cc3s2)c1 [Example 27, 2-(Pyridin-3-yl)-6-(pyrrolidin-1-yl)[1,3]thiazolo[4,5-c]pyridine] | 1.38 | 2.61 |  |
| O=C(Nc1cc2sc(-c3cccnc3)nc2cn1)c1cccc([S+]([O-])C(F)(F)F)c1 (stereo not shown) [Example 28] | 2.61 |  |  |
| CS(=O)(=O)CCC(=O)Nc1cc2sc(-c3cccnc3)nc2cn1 [Example 29] | 1.17 |  |  |
| CS(=O)(=O)CCNC(=O)c1cc2sc(-c3cccnc3)nc2cn1 [Example 30] | 1.23 |  |  |

Source: US20180282347A1, “BICYCLIC COMPOUNDS AS PEST CONTROL AGENTS” (BAYER CROPSCIENCE AKTIENGESELLSCHAFT, priority 2014, published 2018)
